Measurements reported in the NIST ThermoML archive (doi:10.1021/je060170c).

Experiment: xn = mol fraction of the nth substance listed
Conditions: 101 kPa, Liquid; for viscosity: Anton Paar Stabinger viscometer

COc1ccccc1 [anisole] + Cc1ccccc1
Conditions | mass density [kg/m3] | speed of sound [m/s] | viscosity [mPa·s]
288.15 K, x1 = 0.1152 | 886.478 | 1360.7 | 0.676
288.15 K, x1 = 0.2132 | 899.203 | 1369.9 | 0.725
288.15 K, x1 = 0.3098 | 911.684 | 1379.1 | 0.77
288.15 K, x1 = 0.4182 | 925.577 | 1389.6 | 0.832
288.15 K, x1 = 0.5267 | 939.392 | 1400.4 | 0.891
288.15 K, x1 = 0.6209 | 951.306 | 1410 | 0.94
288.15 K, x1 = 0.7382 | 966.034 | 1421.9 | 1.014
288.15 K, x1 = 0.8645 | 981.766 | 1434.9 | 1.094
288.15 K, x1 = 0.927 | 989.474 | 1441.5 | 1.138
288.15 K, x1 = 1 | 998.441 | 1449.1 | 1.188
293.15 K, x1 = 0.1152 | 881.927 | 1339.1 | 0.628
293.15 K, x1 = 0.2132 | 894.629 | 1347.9 | 0.671
293.15 K, x1 = 0.3098 | 907.078 | 1357.9 | 0.71
293.15 K, x1 = 0.4182 | 920.94 | 1367.2 | 0.765
293.15 K, x1 = 0.5267 | 934.732 | 1377.6 | 0.818
293.15 K, x1 = 0.6209 | 946.626 | 1387.6 | 0.861
293.15 K, x1 = 0.7382 | 961.327 | 1398.7 | 0.927
293.15 K, x1 = 0.8645 | 977.029 | 1412.5 | 0.999
293.15 K, x1 = 0.927 | 984.734 | 1418.9 | 1.039
293.15 K, x1 = 1 | 993.653 | 1428.5 | 1.084
298.15 K, x1 = 0.1152 | 877.272 | 1316.5 | 0.594
298.15 K, x1 = 0.2132 | 889.988 | 1325.8 | 0.634
298.15 K, x1 = 0.3098 | 902.448 | 1335 | 0.67
298.15 K, x1 = 0.4182 | – | 1345.3 | 0.721
298.15 K, x1 = 0.5267 | 930.133 | 1356.5 | 0.769
298.15 K, x1 = 0.6209 | 942.044 | 1366.3 | 0.809
298.15 K, x1 = 0.7382 | 956.777 | 1378.8 | 0.871
298.15 K, x1 = 0.8645 | 972.508 | 1392.7 | 0.94
298.15 K, x1 = 0.927 | 980.221 | 1399.6 | 0.977
298.15 K, x1 = 1 | 989.15 | 1408 | 1.017
303.15 K, x1 = 0.1152 | 872.541 | 1295.1 | 0.557
303.15 K, x1 = 0.2132 | 885.247 | 1304.8 | 0.592
303.15 K, x1 = 0.3098 | 897.698 | 1314.4 | 0.623
303.15 K, x1 = 0.4182 | 911.571 | 1325.3 | 0.667
303.15 K, x1 = 0.5267 | 925.369 | 1336.5 | 0.709
303.15 K, x1 = 0.6209 | 937.281 | 1346.4 | 0.745
303.15 K, x1 = 0.7382 | 952.012 | 1358.8 | 0.802
303.15 K, x1 = 0.8645 | 967.753 | 1372.5 | 0.862
303.15 K, x1 = 0.927 | 975.465 | 1379.4 | 0.895
303.15 K, x1 = 1 | 984.374 | 1387.7 | 0.931

COc1ccccc1 [anisole] + Cc1ccccc1C
Conditions | mass density [kg/m3] | speed of sound [m/s] | viscosity [mPa·s]
288.15 K, x1 = 0.0915 | 893.348 | 1395 | 0.885
288.15 K, x1 = 0.198 | 905.888 | 1402.3 | 0.914
288.15 K, x1 = 0.368 | 924.439 | 1409 | 0.944
288.15 K, x1 = 0.4954 | 938.936 | 1415.7 | 0.979
288.15 K, x1 = 0.6554 | 957.421 | 1424.7 | 1.028
288.15 K, x1 = 0.766 | 970.279 | 1431.2 | 1.066
288.15 K, x1 = 0.868 | 982.607 | 1439.4 | 1.133
288.15 K, x1 = 0.916 | 988.769 | 1444.5 | 1.159
288.15 K, x1 = 0.949 | 992.756 | 1447.1 | 1.172
288.15 K, x1 = 1 | 998.44 | 1449.1 | 1.188
293.15 K, x1 = 0.0915 | 889.076 | 1374.4 | 0.821
293.15 K, x1 = 0.198 | 900.83 | 1381.7 | 0.844
293.15 K, x1 = 0.368 | 919.973 | 1388.3 | 0.868
293.15 K, x1 = 0.4954 | 934.513 | 1394.9 | 0.899
293.15 K, x1 = 0.6554 | 953.102 | 1403.9 | 0.942
293.15 K, x1 = 0.766 | 966.072 | 1410.4 | 0.975
293.15 K, x1 = 0.868 | 978.09 | 1418.6 | 1.035
293.15 K, x1 = 0.916 | 983.748 | 1424 | 1.058
293.15 K, x1 = 0.949 | 987.635 | 1426.6 | 1.072
293.15 K, x1 = 1 | 993.649 | 1428.5 | 1.084
298.15 K, x1 = 0.0915 | 885.509 | 1354 | 0.769
298.15 K, x1 = 0.198 | 897.159 | 1359.5 | 0.79
298.15 K, x1 = 0.368 | 916.136 | 1368.6 | 0.813
298.15 K, x1 = 0.4954 | 930.569 | 1375.7 | 0.841
298.15 K, x1 = 0.6554 | 948.998 | 1385.1 | 0.881
298.15 K, x1 = 0.766 | 961.882 | 1391.9 | 0.914
298.15 K, x1 = 0.868 | 973.792 | 1398.6 | 0.974
298.15 K, x1 = 0.916 | 979.418 | 1402 | 0.996
298.15 K, x1 = 0.949 | 983.27 | 1404.3 | 1.005
298.15 K, x1 = 1 | 989.104 | 1408 | 1.017
303.15 K, x1 = 0.0915 | 880.756 | 1333.4 | 0.718
303.15 K, x1 = 0.198 | 892.435 | 1339.3 | 0.735
303.15 K, x1 = 0.368 | 911.407 | 1348.8 | 0.753
303.15 K, x1 = 0.4954 | 925.824 | 1355.9 | 0.776
303.15 K, x1 = 0.6554 | 944.269 | 1365.2 | 0.811
303.15 K, x1 = 0.766 | 957.177 | 1371.8 | 0.84
303.15 K, x1 = 0.868 | 969.125 | 1378.1 | 0.893
303.15 K, x1 = 0.916 | 974.761 | 1381.2 | 0.912
303.15 K, x1 = 0.949 | 978.63 | 1383.3 | 0.922
303.15 K, x1 = 1 | 984.372 | 1386.7 | 0.931

COc1ccccc1 [anisole] + c1ccccc1
Conditions | mass density [kg/m3] | speed of sound [m/s] | viscosity [mPa·s]
288.15 K, x1 = 0.097 | 897.546 | 1356.8 | 0.747
288.15 K, x1 = 0.175 | 907.884 | 1364.5 | 0.777
288.15 K, x1 = 0.274 | 920.511 | 1374.4 | 0.817
288.15 K, x1 = 0.368 | 932.009 | 1383.8 | 0.856
288.15 K, x1 = 0.4971 | 947.045 | 1395.2 | 0.915
288.15 K, x1 = 0.623 | 960.925 | 1406.8 | 0.976
288.15 K, x1 = 0.72 | 971.118 | 1418.4 | 1.027
288.15 K, x1 = 0.8003 | 979.257 | 1425.2 | 1.072
288.15 K, x1 = 0.8895 | 988.004 | 1437.5 | 1.126
288.15 K, x1 = 1 | 998.441 | 1449.1 | 1.188
293.15 K, x1 = 0.097 | 890.999 | 1333 | 0.683
293.15 K, x1 = 0.175 | 901.497 | 1340.7 | 0.71
293.15 K, x1 = 0.274 | 914.322 | 1350.8 | 0.746
293.15 K, x1 = 0.368 | 926.005 | 1360.5 | 0.781
293.15 K, x1 = 0.4971 | 941.295 | 1373.9 | 0.833
293.15 K, x1 = 0.623 | 955.425 | 1387.2 | 0.889
293.15 K, x1 = 0.72 | 965.807 | 1397.5 | 0.936
293.15 K, x1 = 0.8003 | 974.102 | 1406.1 | 0.978
293.15 K, x1 = 0.8895 | 983.017 | 1415.9 | 1.027
293.15 K, x1 = 1 | 993.649 | 1428.5 | 1.084
298.15 K, x1 = 0.097 | 887.083 | 1309.3 | 0.638
298.15 K, x1 = 0.175 | 897.532 | 1317 | 0.664
298.15 K, x1 = 0.274 | 910.286 | 1327.1 | 0.697
298.15 K, x1 = 0.368 | 921.904 | 1337 | 0.73
298.15 K, x1 = 0.4971 | 937.104 | 1350.8 | 0.779
298.15 K, x1 = 0.623 | 951.156 | 1364.6 | 0.831
298.15 K, x1 = 0.72 | 961.483 | 1375.5 | 0.877
298.15 K, x1 = 0.8003 | 969.734 | 1384.6 | 0.918
298.15 K, x1 = 0.8895 | 978.597 | 1394.8 | 0.963
298.15 K, x1 = 1 | 989.15 | 1408 | 1.017
303.15 K, x1 = 0.097 | 881.745 | 1286.9 | 0.601
303.15 K, x1 = 0.175 | 892.244 | 1295.4 | 0.623
303.15 K, x1 = 0.274 | 905.059 | 1306.3 | 0.651
303.15 K, x1 = 0.368 | 916.731 | 1316.6 | 0.679
303.15 K, x1 = 0.4971 | 932.013 | 1330.9 | 0.72
303.15 K, x1 = 0.623 | 946.146 | 1345 | 0.767
303.15 K, x1 = 0.72 | 956.542 | 1355.8 | 0.808
303.15 K, x1 = 0.8003 | 964.845 | 1364.9 | 0.844
303.15 K, x1 = 0.8895 | 973.764 | 1375.1 | 0.883
303.15 K, x1 = 1 | 984.374 | 1387.7 | 0.931
